According to US12441768B2, “Compositions and methods for treating endometriosis” (EndoMet Biosciences, Inc., priority 2018, dated 2025):
Where a SMILES comes first, the peptide text is derived from it. [ ]: non-standard residue; d: D form. The star is where a group is joined. ξ: configuration not given here. NMeW = CN[C@@H](Cc1c[nH]c2ccccc12)C(=O)O; Palmitoyl = CCCCCCCCCCCCCCCC(=O)*; ξαMeV = CC(C)C(C)(N)C(=O)O; ξαMeS = CC(N)(CO)C(=O)O; GABA = NCCCC(=O)O

How the values were obtained:
[1] = biological target: Wnt-responsive promoter (TCF/LEF); test: Wnt-dependent luciferase reporter assay; format: cell-based, murine
Procedure: The luciferase reporter assay is commonly used as a tool to study gene expression at the transcriptional level. Peptides from libraries described herein were characterized for ability to suppress transcription in cells with luciferase expression controlled by a Wnt-responsive promoter. Peptides were added to cells transfected with luciferase gene downstream of a Wnt-responsive promoter. Cells were stimulated with Wnt3a protein and incubated with peptides from libraries described herein. Luminescence was recorded to determine the peptides with the highest β-catenin-inhibiting activity. EC50 values were calculated based on the inhibition of luminescence and expressed as concentration (uM) in Table 5.
Peptides were assessed for their ability to inhibit Wnt signaling. Murine 3T3 fibroblasts that express luciferase under a Wnt-responsive promoter (TCF/LEF) (Enzo Life Sciences, Farmingdale, NY) were stimulated with Wnt3a in the presence of increasing concentrations of peptide inhibitor (Hit 1: SEQ ID NO:217, Hit 2: SEQ ID NO:224, Hit 3: SEQ ID NO:228, Hit 4: SEQ ID NO:227, Hit 5: SEQ ID NO:220, Hit 6: SEQ ID NO:168. Hit 7: SEQ ID NO:226) or with vehicle control (FIG. 2A).

[2] = biological target: T1, β-catenin (Homo sapiens, UniProt P35222); test: KD50 measurement using competitive fluorescence polarization (FP) with labelled TCF4; format: binding; conditions: fluorescence polarization, β-catenin; for Kd: read-out: β-Cat FP KD
T1 sequence (P35222 1-781): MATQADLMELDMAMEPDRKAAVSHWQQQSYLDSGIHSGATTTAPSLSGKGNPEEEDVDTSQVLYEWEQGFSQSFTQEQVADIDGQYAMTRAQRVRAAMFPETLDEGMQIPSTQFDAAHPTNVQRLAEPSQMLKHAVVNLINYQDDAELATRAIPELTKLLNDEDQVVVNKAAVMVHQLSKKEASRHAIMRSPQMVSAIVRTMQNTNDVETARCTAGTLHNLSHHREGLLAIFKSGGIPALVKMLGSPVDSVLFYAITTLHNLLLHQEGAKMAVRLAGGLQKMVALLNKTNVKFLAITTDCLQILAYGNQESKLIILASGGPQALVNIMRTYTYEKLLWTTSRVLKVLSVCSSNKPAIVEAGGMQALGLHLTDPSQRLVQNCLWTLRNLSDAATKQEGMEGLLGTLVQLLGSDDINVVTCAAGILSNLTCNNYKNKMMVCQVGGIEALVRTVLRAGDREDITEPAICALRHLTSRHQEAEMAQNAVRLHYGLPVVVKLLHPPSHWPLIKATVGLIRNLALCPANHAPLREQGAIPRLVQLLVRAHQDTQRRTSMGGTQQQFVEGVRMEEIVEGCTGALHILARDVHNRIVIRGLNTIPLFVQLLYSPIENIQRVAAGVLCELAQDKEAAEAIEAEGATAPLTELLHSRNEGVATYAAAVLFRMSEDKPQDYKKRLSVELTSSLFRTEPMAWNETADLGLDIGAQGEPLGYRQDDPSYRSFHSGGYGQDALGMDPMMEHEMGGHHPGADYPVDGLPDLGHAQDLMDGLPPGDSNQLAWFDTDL
Procedure, shortened: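 Tracer: labelled TCF4, 5 nM; protein 100 nM; RT incubation. Competitor dilution series 10 nM–30 uM. FP read ex 470 / em 520 nm. n = 3.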

CC[C@H](C)[C@@H]1NC(=O)[C@@H](NC(=O)[C@H](CCC(N)=O)NC(=O)[C@H](C)N(C)C(=O)[C@H](Cc2c[nH]c3ccccc23)NC(C)=O)CCCCNC(=O)C[C@@H](C(=O)N[C@@H](Cc2c[nH]cn2)C(=O)N[C@H](C(=O)N[C@@H](CCC(N)=O)C(=O)N[C@@H](CCCNC(=N)N)C(=O)N[C@H](C(=O)N[C@@H](Cc2c[nH]c3ccccc23)C(=O)NCC(N)=O)C(C)C)C2CCCCC2)NC(=O)[C@H](CC(=O)O)NC(=O)[C@H](CC(C)C)NC1=O [compound 430] (HELM PEPTIDE1{[ac].W.[meA].Q.K.I.L.D.D.H.[O=C([C@@H](N[*:1])C1CCCCC1)[*:2]].Q.R.V.W.G.[am]}$PEPTIDE1,PEPTIDE1,5:R3-9:R3$$$V2.0)
EC50 [1]: 15 to 22.5 µM
β-Cat FP Hill slope [2]: 1.75
Kd [2]: < 0.4 µM

CC[C@H](C)[C@H](NC(=O)[C@@H](NC(=O)[C@H](CCC(N)=O)NC(=O)[C@@H]1CCCN1C(=O)[C@H](CC(=O)O)NC(=O)[C@H](CCC(=O)O)NC(=O)[C@H](CCC(=O)O)NC(=O)CCNC(C)=O)[C@@H](C)O)C(=O)N[C@@H](CC(C)C)C(=O)N[C@@H](CC(=O)O)C(=O)N[C@@H](CC(=O)O)C(=O)N[C@@H](Cc1c[nH]cn1)C(=O)N[C@@H](CC(C)C)C(=O)N[C@@H](CO)C(=O)N[C@@H](CCCNC(=N)N)C(=O)N[C@H](C(=O)N[C@@H](CC(C)C)C(=O)N[C@@H](CCCCN)C(N)=O)C(C)C [compound 412] (HELM PEPTIDE1{[ac].[bAla].E.E.D.P.Q.T.I.L.D.D.H.L.S.R.V.L.K.[am]}$$$$V2.0)
EC50 [1]: > 30 µM
β-Cat FP Hill slope [2]: 0.7
Kd [2]: 1 to 10 µM

CC[C@H](C)[C@@H]1NC(=O)[C@@H](NC(=O)[C@H](CCC(N)=O)NC(=O)[C@H](C)N(C)C(=O)[C@H](Cc2c[nH]c3ccccc23)NC(C)=O)CCCCNC(=O)CC[C@@H](C(=O)N[C@@H](Cc2c[nH]cn2)C(=O)N[C@H](C(=O)N[C@@H](CCC(N)=O)C(=O)N[C@@H](CCCNC(=N)N)C(=O)N[C@H](C(=O)N[C@@H](Cc2c[nH]c3ccccc23)C(=O)NCC(N)=O)C(C)C)C2CCCCC2)NC(=O)[C@H](CC(=O)O)NC(=O)[C@H](CC(C)C)NC1=O [compound 404] (HELM PEPTIDE1{[ac].W.[meA].Q.K.I.L.D.E.H.[O=C([C@@H](N[*:1])C1CCCCC1)[*:2]].Q.R.V.W.G.[am]}$PEPTIDE1,PEPTIDE1,5:R3-9:R3$$$V2.0)
EC50 [1]: > 30 µM
β-Cat FP Hill slope [2]: 0.79
Kd [2]: < 0.4 µM

CC[C@H](C)[C@H](NC(=O)[C@H](CO)NC(=O)[C@H](CCC(=O)O)NC(=O)[C@H](Cc1c[nH]c2ccccc12)N(C)C(=O)[C@@H](N)Cc1c[nH]c2ccccc12)C(=O)N[C@@H](CC(C)C)C(=O)N[C@@H](CC(=O)O)C(=O)N[C@@H](CCC(=O)O)C(=O)N[C@@H](Cc1c[nH]cn1)C(=O)N[C@H](C(=O)N[C@@H](CCC(N)=O)C(=O)N[C@@H](CCCNC(=N)N)C(=O)N[C@H](C(=O)N[C@@H](Cc1c[nH]c2ccccc12)C(=O)NCC(N)=O)C(C)C)C(C)C [compound 36] (HELM PEPTIDE1{W.[meW].E.S.I.L.D.E.H.V.Q.R.V.W.G.[am]}$$$$V2.0)
EC50 [1]: > 30 µM
β-Cat FP Hill slope [2]: 0.87
Kd [2]: < 0.4 µM

CCCCCCCCCCCCCCCC(=O)NCC(=O)N[C@@H](Cc1c[nH]c2ccccc12)C(=O)N(C)[C@@H](Cc1c[nH]c2ccccc12)C(=O)N[C@@H](CCC(=O)O)C(=O)NC(C)(CO)C(=O)N[C@H](C(=O)N[C@@H](CC(C)C)C(=O)N[C@@H](CC(=O)O)C(=O)N[C@@H](CCC(=O)O)C(=O)N[C@@H](Cc1c[nH]cn1)C(=O)NC(C)(C(=O)N[C@@H](CCC(N)=O)C(=O)N[C@@H](CCCNC(=N)N)C(=O)N[C@H](C(=O)N[C@@H](Cc1c[nH]c2ccccc12)C(=O)O)C(C)C)C(C)C)[C@@H](C)CC (stereo partly drawn) [compound 398] (Palmitoyl-GW[NMeW]E[ξαMeS]ILDEH[ξαMeV]QRVW-OH)
EC50 [1]: 7.5 to 15 µM

CCCCCCCCCCCCCCCC(=O)NCCCC(=O)N[C@@H](Cc1c[nH]c2ccccc12)C(=O)N(C)[C@@H](Cc1c[nH]c2ccccc12)C(=O)N[C@@H](CCC(=O)O)C(=O)NC(C)(CO)C(=O)N[C@H](C(=O)N[C@@H](CC(C)C)C(=O)N[C@@H](CC(=O)O)C(=O)N[C@@H](CCC(=O)O)C(=O)N[C@@H](Cc1c[nH]cn1)C(=O)NC(C)(C(=O)N[C@@H](CCC(N)=O)C(=O)N[C@@H](CCCNC(=N)N)C(=O)N[C@H](C(=O)N[C@@H](Cc1c[nH]c2ccccc12)C(=O)O)C(C)C)C(C)C)[C@@H](C)CC (stereo partly drawn) [compound 400] ({Palmitoyl-GABA}-W[NMeW]E[ξαMeS]ILDEH[ξαMeV]QRVW-OH)
EC50 [1]: 7.5 to 15 µM

CCCCCCCCCCCC(=O)N[C@@H](Cc1c[nH]c2ccccc12)C(=O)N(C)[C@@H](C)C(=O)N[C@@H](CCC(N)=O)C(=O)N[C@H]1CCCCNC(=O)CC[C@@H](C(=O)N[C@@H](Cc2c[nH]cn2)C(=O)N[C@H](C(=O)N[C@@H](CCC(N)=O)C(=O)N[C@@H](CCCNC(=N)N)C(=O)N[C@H](C(=O)N[C@@H](Cc2c[nH]c3ccccc23)C(N)=O)C(C)C)C2CCCCC2)NC(=O)[C@H](CC(=O)O)NC(=O)[C@H](CC(C)C)NC(=O)[C@H]([C@@H](C)CC)NC1=O [compound 447] (HELM PEPTIDE1{[CCCCCCCCCCCC(=O)[*:2]].W.[meA].Q.K.I.L.D.E.H.[O=C([C@@H](N[*:1])C1CCCCC1)[*:2]].Q.R.V.W.[am]}$PEPTIDE1,PEPTIDE1,5:R3-9:R3$$$V2.0)
Kd [2]: < 0.4 µM

CC[C@H](C)[C@@H]1NC(=O)[C@H](CC(C)C)NC(=O)[C@H](Cc2ccccc2)NC(=O)[C@H](Cc2c[nH]c3ccccc23)NC(=O)[C@@H](N)CCCCNC(=O)CC[C@@H](C(=O)O)NC(=O)[C@H](Cc2c[nH]c3ccccc23)NC(=O)[C@H](Cc2ccccc2)NC(=O)[C@H](CO)NC1=O [compound 226] (HELM PEPTIDE1{K.W.F.L.I.S.F.W.E}$PEPTIDE1,PEPTIDE1,1:R3-9:R3$$$V2.0)
β-Cat FP Hill slope [2]: 0.69
Kd [2]: 1 to 10 µM

CC[C@H](C)[C@H](NC(=O)[C@H](CC(C)C)NC(=O)[C@H](Cc1ccccc1)NC(=O)[C@H](Cc1c[nH]c2ccccc12)NC(=O)[C@@H](N)CCSC)C(=O)N[C@@H](CO)C(=O)N[C@@H](Cc1ccccc1)C(=O)N[C@@H](C)C(=O)NCC(=O)O [compound 8] (H-MWFLISFAG-OH)
β-Cat FP Hill slope [2]: 1.7
Kd [2]: 1 to 10 µM

CC[C@H](C)[C@@H]1NC(=O)[C@H](CC(C)C)NC(=O)[C@H](Cc2ccccc2)NC(=O)[C@H](Cc2c[nH]c3ccccc23)NC(=O)[C@@H](N)CCCCNC(=O)CCCNC(=O)C[C@@H](C(=O)O)NC(=O)[C@H](Cc2c[nH]c3ccccc23)NC(=O)[C@H](C)NC(=O)[C@H](CS)NC1=O [compound 247] (HELM PEPTIDE1{K.W.F.L.I.C.A.W.[O=C(O)[C@H](CC(=O)[*:2])N[*:1]].[O=C(CCCN[*:1])[*:2]]}$PEPTIDE1,PEPTIDE1,1:R3-10:R2$$$V2.0)
β-Cat FP Hill slope [2]: 2.34
Kd [2]: < 0.4 µM

CC[C@H](C)[C@@H]1NC(=O)[C@H](CC(C)C)NC(=O)[C@H](Cc2ccccc2)NC(=O)[C@H](Cc2c[nH]c3ccccc23)NC(=O)CCCCCCCCCNC(=O)[C@H](Cc2c[nH]c3ccccc23)NC(=O)[C@H](C)NC(=O)[C@H](CS)NC1=O [compound 250] (HELM PEPTIDE1{A.W.[O=C(CCCCCCCCCN[*:1])[*:2]].W.F.L.I.C}$PEPTIDE1,PEPTIDE1,1:R1-8:R2$$$V2.0)
Kd [2]: 1 to 10 µM

CC[C@H](C)[C@@H]1NC(=O)[C@@H](NC(=O)C(C)(C)NC(=O)[C@H](C)N(C)C(=O)[C@@H](N)Cc2c[nH]c3ccccc23)CCCCNC(=O)CC[C@@H](C(=O)N[C@@H](Cc2c[nH]cn2)C(=O)N[C@H](C(=O)N[C@@H](CCC(N)=O)C(=O)N[C@@H](CCCNC(=N)N)C(=O)N[C@H](C(=O)N[C@@H](Cc2c[nH]c3ccccc23)C(=O)NCC(N)=O)C(C)C)C2CCCCC2)NC(=O)[C@H](CC(=O)O)NC(=O)[C@H](CC(C)C)NC1=O [compound 417] (HELM PEPTIDE1{W.[meA].[Aib].K.I.L.D.E.H.[O=C([C@@H](N[*:1])C1CCCCC1)[*:2]].Q.R.V.W.G.[am]}$PEPTIDE1,PEPTIDE1,4:R3-8:R3$$$V2.0)
β-Cat FP Hill slope [2]: 0.93
Kd [2]: < 0.4 µM
